Experimental data: ChEMBL document CHEMBL1153245, “A profile of the in vitro anti-tumor activity of imidazolium-based ionic liquids” (2010)

Experiments:
Format in all cases: functional
[1] = test system: OVCAR-4; experiment: Anticancer activity against human OVCAR4 cells after 48 hrs by sulforhodamine B assay; settings: Homo sapiens, OVCAR-4, 48 h
[2] = test system: NCI-H522; experiment: Anticancer activity against human NCI-H522 cells after 48 hrs by sulforhodamine B assay; settings: Homo sapiens, NCI-H522, 48 h
[3] = test system: BT-549; experiment: Anticancer activity against human BT549 cells after 48 hrs by sulforhodamine B assay; settings: Homo sapiens, BT-549, 48 h
[4] = test system: Malme-3M; experiment: Anticancer activity against human MALME-3M cells assessed cell growth at 10 uM after 48 hrs by sulforhodamine B assay relative to control
[5] = test system: LOX IMVI; experiment: Anticancer activity against human LOXIMVI cells after 48 hrs by sulforhodamine B assay; settings: Homo sapiens, LOX IMVI, 48 h
[6] = test system: ACHN; experiment: Anticancer activity against human ACHN cells after 48 hrs by sulforhodamine B assay; settings: Homo sapiens, ACHN, 48 h
[7] = test system: HL-60(TB); experiment: Anticancer activity against human HL-60(TB) cells after 48 hrs by sulforhodamine B assay; settings: Homo sapiens, HL-60, 48 h
[8] = test system: SNB-75; experiment: Anticancer activity against human SNB75 cells assessed cell growth at 10 uM after 48 hrs by sulforhodamine B assay relative to control
[9] = test system: HOP-92; experiment: Anticancer activity against human HOP92 cells after 48 hrs by sulforhodamine B assay; settings: Homo sapiens, HOP-92, 48 h
[10] = test system: MDA-MB-231; experiment: Anticancer activity against human MDA-MB-231 cells assessed cell growth at 10 uM after 48 hrs by sulforhodamine B assay relative to control
[11] = test system: UACC-62; experiment: Anticancer activity against human UACC62 cells assessed cell growth at 10 uM after 48 hrs by sulforhodamine B assay relative to control
[12] = test system: MDA-MB-435; experiment: Anticancer activity against human MDA-MB-435 cells after 48 hrs by sulforhodamine B assay; settings: Homo sapiens, MDA-MB-435, 48 h
[13] = test system: A498; experiment: Anticancer activity against human A498 cells after 48 hrs by sulforhodamine B assay; settings: Homo sapiens, A498, 48 h
[14] = test system: MOLT-4; experiment: Anticancer activity against human MOLT4 cells assessed cell growth at 10 uM after 48 hrs by sulforhodamine B assay relative to control
[15] = test system: UO-31; experiment: Anticancer activity against human UO31 cells after 48 hrs by sulforhodamine B assay; settings: Homo sapiens, UO-31, 48 h
[16] = test system: SK-MEL-28; experiment: Anticancer activity against human SK-MEL-28 cells after 48 hrs by sulforhodamine B assay
[17] = test system: SK-MEL-5; experiment: Anticancer activity against human SK-MEL-5 cells assessed cell growth at 10 uM after 48 hrs by sulforhodamine B assay relative to control
[18] = test system: OVCAR-5; experiment: Anticancer activity against human OVCAR5 cells assessed cell growth at 10 uM after 48 hrs by sulforhodamine B assay relative to control
[19] = test system: SW-620; experiment: Anticancer activity against human SW620 cells assessed cell growth at 10 uM after 48 hrs by sulforhodamine B assay relative to control
[20] = test system: UACC-257; experiment: Anticancer activity against human UACC257 cells after 48 hrs by sulforhodamine B assay; settings: Homo sapiens, UACC-257, 48 h
[21] = test system: HCT-15; experiment: Anticancer activity against human HCT15 cells after 48 hrs by sulforhodamine B assay; settings: Homo sapiens, HCT-15, 48 h
[22] = test system: M14; experiment: Anticancer activity against human M14 cells after 48 hrs by sulforhodamine B assay
[23] = test system: 786-0; experiment: Anticancer activity against human 786-0 cells after 48 hrs by sulforhodamine B assay; settings: Homo sapiens, 786-0, 48 h
[24] = test system: HOP-62; experiment: Anticancer activity against human HOP62 cells after 48 hrs by sulforhodamine B assay; settings: Homo sapiens, HOP-62, 48 h
[25] = test system: SNB-19; experiment: Anticancer activity against human SNB19 cells after 48 hrs by sulforhodamine B assay; settings: Homo sapiens, SNB-19, 48 h
[26] = test system: DU-145; experiment: Anticancer activity against human DU145 cells after 48 hrs by sulforhodamine B assay
[27] = test system: K562; experiment: Anticancer activity against human K562 cells after 48 hrs by sulforhodamine B assay; settings: Homo sapiens, K562, 48 h
[28] = test system: MCF7; experiment: Anticancer activity against human MCF7 cells assessed cell growth at 10 uM after 48 hrs by sulforhodamine B assay relative to control
[29] = test system: RXF 393; experiment: Anticancer activity against human RXF393 cells assessed cell growth at 10 uM after 48 hrs by sulforhodamine B assay relative to control
[30] = test system: RXF 393; experiment: Anticancer activity against human RXF393 cells after 48 hrs by sulforhodamine B assay; settings: Homo sapiens, RXF 393, 48 h
[31] = test system: EKVX; experiment: Anticancer activity against human EKVX cells after 48 hrs by sulforhodamine B assay; settings: Homo sapiens, EKVX, 48 h
[32] = test system: NCI-H322M; experiment: Anticancer activity against human NCI-H322M cells after 48 hrs by sulforhodamine B assay; settings: Homo sapiens, NCI-H322M, 48 h
[33] = test system: NCI-H322M; experiment: Anticancer activity against human NCI-H322M cells assessed cell growth at 10 uM after 48 hrs by sulforhodamine B assay relative to control
[34] = Anticancer activity against human Hs 578T cells after 48 hrs by sulforhodamine B assay; settings: Homo sapiens, Hs-578T, 48 h
[35] = test system: SK-MEL-5; experiment: Anticancer activity against human SK-MEL-5 cells after 48 hrs by sulforhodamine B assay
[36] = test system: SF-539; experiment: Anticancer activity against human SF539 cells assessed cell growth at 10 uM after 48 hrs by sulforhodamine B assay relative to control
[37] = test system: NCI-H23; experiment: Anticancer activity against human NCI-H23 cells assessed cell growth at 10 uM after 48 hrs by sulforhodamine B assay relative to control
[38] = test system: SN12C; experiment: Anticancer activity against human SN12C cells assessed cell growth at 10 uM after 48 hrs by sulforhodamine B assay relative to control
[39] = test system: NCI/ADR-RES; experiment: Anticancer activity against human NCI/ADR-RES cells after 48 hrs by sulforhodamine B assay; settings: Homo sapiens, NCI/ADR-RES, 48 h
[40] = Anticancer activity against human […] cells after 48 hrs by sulforhodamine B assay
[41] = test system: SK-OV-3; experiment: Anticancer activity against human SKOV3 cells after 48 hrs by sulforhodamine B assay; settings: Homo sapiens, SK-OV-3, 48 h
[42] = read-out: LC50 (the source's name)

Compound `CCCCCCCCCCCC[n+]1ccn(C)c1.[Cl-]` has a GI50 [1] of 3.17 µM, a CC50 [1, 42] of over 100 µM and a GI50 [2] of 2.37 µM. It also gave a GI50 [3] of 1.84 µM, a CC50 [3, 42] of 50.8 µM and an Activity [4] of 24.55%. For the same compound, the GI50 [5] was 1.72 µM, the CC50 [5, 42] was 45.3 µM and the GI50 [6] was 7.24 µM. The GI50 [7] was 0.331 µM, the CC50 [7, 42] was 7.78 µM and the Activity [8] was -10.6%. The GI50 [9] was 5.3 µM, the CC50 [9, 42] was over 100 µM and the Activity [10] was 41.54%. It also gave an Activity [11] of 31.07%, a GI50 [12] of 1.79 µM and a CC50 [12, 42] of 69.1 µM. The GI50 [13] was 4.28 µM, the CC50 [13, 42] was over 100 µM and the Activity [14] was 78.62%. The GI50 [15] was 10.2 µM, the GI50 [16] was 4.57 µM and the Activity [17] was -33.13%. For the same compound, the Activity [18] was 45.62%, the Activity [19] was 44.11% and the GI50 [20] was 1.68 µM. It also gave a GI50 [21] of 20.8 µM, a CC50 [21, 42] of over 100 µM and a GI50 [22] of 1.92 µM. For the same compound, the GI50 [23] was 3.36 µM, the GI50 [24] was 4.86 µM and the CC50 [24, 42] was over 100 µM. The GI50 [25] was 6.76 µM, the CC50 [25, 42] was over 100 µM and the GI50 [26] was 0.688 µM. For the same compound, the CC50 ([26]; Homo sapiens, DU-145, 48 h, read-out: LC50 (the source's name)) was over 100 µM, the GI50 [27] was 0.498 µM and the CC50 [27, 42] was over 100 µM. The Activity [28] was 3.94%, the Activity [29] was -20.81% and the GI50 [30] was 5.9 µM. It also gave a GI50 [31] of 0.873 µM, a CC50 [31, 42] of over 100 µM and a GI50 [32] of 22.6 µM. It also gave an Activity [33] of 57.06%, a GI50 [34] of 3.13 µM and a CC50 [34, 42] of over 100 µM. For the same compound, the GI50 ([35]; Homo sapiens, SK-MEL-5, 48 h) was 1.22 µM, the CC50 [35, 42] was 7.8 µM and the Activity [36] was 30.45%. For the same compound, the Activity [37] was 28.79%, the Activity [38] was 19.36% and the GI50 [39] was 55 µM. It also gave a GI50 [40] of 0.109 µM, a CC50 ([40]; Homo sapiens, RPMI8266, 48 h, read-out: LC50 (the source's name)) of 6.13 µM and a GI50 [41] of 4.76 µM. For the same compound, the CC50 [41, 42] was over 100 µM.
